Read-outs that look alike come from different tables or passages of the source.
Experiments:
5-HT1A [1] = biological target: T1, 5-HT1A (Homo sapiens, UniProt P08908); experiment: 5HT1A Radioligand Receptor Binding Assay ([3H]-8-OH-DPAT, CHO cell membranes); design: expressed in transfected cells; host or cells: CHO cells; conditions: for inhibition at 0.1 µM: compound 10^−7 M, singlicate, [3H]-8-OH-DPAT 0.6-0.7 nM
T1 sequence (P08908 1-422): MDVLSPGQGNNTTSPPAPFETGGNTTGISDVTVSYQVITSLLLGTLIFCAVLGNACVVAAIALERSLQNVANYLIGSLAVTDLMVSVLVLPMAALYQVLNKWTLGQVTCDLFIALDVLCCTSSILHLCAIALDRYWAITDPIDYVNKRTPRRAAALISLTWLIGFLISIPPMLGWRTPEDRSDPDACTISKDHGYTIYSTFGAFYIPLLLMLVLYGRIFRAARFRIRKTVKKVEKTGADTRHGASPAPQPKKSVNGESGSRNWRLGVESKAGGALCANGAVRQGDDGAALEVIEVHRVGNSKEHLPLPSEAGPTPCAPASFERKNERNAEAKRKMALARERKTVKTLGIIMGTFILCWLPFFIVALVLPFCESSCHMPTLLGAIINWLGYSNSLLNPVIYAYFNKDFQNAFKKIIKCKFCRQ
Procedure, shortened: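 CHO-cell membranes expressing human 5-HT1A incubated with [3H]-8-OH-DPAT (0.6-0.7 nM) for 60 minutes at 27° C, filtered and scintillation counted; non-specific binding defined with 10^−5 M 5-HT. Compounds tested singly at 10^−7 M as % of control specific binding; IC50 from one-site nonlinear regression.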

5-HT1A [2] = biological target: T1, 5-HT1A; experiment: 5-HT1 Functional Assay (cAMP) in CHO/5-HT1A cells; format: cell-based; design: expressed in transfected cells; host or cells: CHO/5-HT1A cells
Procedure: 5-HT1 Functional Assay (cAMP)
CHO/5-HT1A cells were random seeded at a density of about 200,000/well in 24 well plates the day prior to the experiment. On the day of the experiment, cells were pretreated for 15 minutes at 37° C. with 500 μM isobutylmethylxantine (IBMX) dissolved in culture medium without serum. Wells were then divided in different groups in duplicate as follows: control, 10 μM FSK, 10 μM FSK+1 μM 5-HT as positive standard and 10 μM FSK+10 μM of the different compound under evaluation. Sample solutions were added and incubated for additional 15 minutes at 37° C. After incubation, the medium was aspirated and the reaction stopped by adding 200 μl of lysis buffer. Plates were shaken for 5 minutes, then the lysate was removed and samples were stored at 4° C. until the day of the assay. For the cAMP evaluation, samples were properly diluted and the cAMP content was measured by an enzyme immunoassay system.

D4 human receptors = biological target: T2, D4 human receptors (Homo sapiens, UniProt P21917); experiment: D4 Radioligand Receptor Binding Assay ([3H] YM-09151-2, CHO cell membranes); conditions: compound 10^−7 M, singlicate, [3H] YM-09151-2 0.15-0.25 nM
T2 construct: expressed in transfected cells; host or cells: CHO cells
T2 sequence (P21917 1-419): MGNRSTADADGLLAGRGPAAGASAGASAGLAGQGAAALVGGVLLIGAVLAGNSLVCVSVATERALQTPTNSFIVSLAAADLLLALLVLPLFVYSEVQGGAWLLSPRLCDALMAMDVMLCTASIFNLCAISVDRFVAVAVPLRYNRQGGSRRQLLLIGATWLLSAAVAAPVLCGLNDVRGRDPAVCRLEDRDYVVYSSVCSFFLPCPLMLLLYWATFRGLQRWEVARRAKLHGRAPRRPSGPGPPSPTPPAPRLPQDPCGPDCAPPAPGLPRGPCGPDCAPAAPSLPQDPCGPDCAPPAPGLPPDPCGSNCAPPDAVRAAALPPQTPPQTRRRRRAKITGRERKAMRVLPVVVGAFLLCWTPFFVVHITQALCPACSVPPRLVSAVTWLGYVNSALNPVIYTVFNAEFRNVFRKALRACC
Procedure, shortened: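 Membranes from CHO cells expressing human D4 receptor incubated with [3H] YM-09151-2 (0.15-0.25 nM) and compound at one concentration (10^−7 M, singlicate) for 120 min at 27° C, then filtered.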

5-HT2A [3] = biological target: 5-HT2A (Mus musculus, UniProt P35363); experiment: 5-HT2 Functional Assay (PI Turnover) in cerebral cortex miniprisms; format: biochemical; conditions: 10 μM compound, inhibition of PI turnover accumulation induced by 100 μM 5-HT
Chain of 5-HT2A (Mus musculus, UniProt P35363) (P35363 whole entry, looked up): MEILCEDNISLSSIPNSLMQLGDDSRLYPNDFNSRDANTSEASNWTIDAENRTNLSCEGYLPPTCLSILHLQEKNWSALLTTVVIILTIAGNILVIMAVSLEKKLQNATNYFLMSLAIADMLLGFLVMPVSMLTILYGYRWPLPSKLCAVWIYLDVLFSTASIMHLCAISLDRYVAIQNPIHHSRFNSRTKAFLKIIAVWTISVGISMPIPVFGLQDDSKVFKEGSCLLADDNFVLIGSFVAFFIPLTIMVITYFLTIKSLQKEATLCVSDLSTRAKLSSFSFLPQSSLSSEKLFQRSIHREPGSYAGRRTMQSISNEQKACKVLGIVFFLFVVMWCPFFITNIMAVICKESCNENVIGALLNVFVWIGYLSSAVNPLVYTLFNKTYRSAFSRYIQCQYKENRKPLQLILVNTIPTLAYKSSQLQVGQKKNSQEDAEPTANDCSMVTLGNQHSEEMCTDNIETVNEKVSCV
Procedure: 5-H T2 Functional Assay (PI Turnover)
Cross-chopped miniprisms (350×350 μm) were prepared from mouse whole cerebral cortices and incubated for 60 minutes at 37° C. in Krebs-Henseleit buffer containing 2 g/l glucose.
Cerebral cortex miniprisms were distributed in vials and incubated for 30 minutes with approximately 170 nM [^3H]-myoinositol (10-20 Ci/mmol) and […] lithium chloride. Samples were divided in different groups in triplicate: control, 100 μM 5-HT, 10 and 30 μM flibanserin+100 μM 5-HT, as standards, and 10 μM of the different compound under investigation+100 μM 5-HT. When 5-HT was added the incubation continued for 45 minutes. Compounds under investigation and flibanserin were added 10 minutes before dispensing 5-HT. Incubation was terminated by the addition of 940 μl chloroform-methanol (1:2 v/v). Further aliquots of chloroform (310 μl) and water (310 μl) were added and labeled inositol phosphates (1 Ps) were extracted from the aqueous phase by ion exchange chromatography using Dowex resin in the formate form. After addition of 10 ml of PicoFluor 40 scintillation cocktail (Packard), the radioactivity present in an aliquot (400 μl) of the aqueous extract was counted by liquid scintillation spectrometry.

5-HT2A [4] = biological target: T3, 5-HT2A (Rattus norvegicus, UniProt P14842); experiment: 5-HT2A Radioligand Receptor Binding Assay ([3H]-Ketanserin, cerebral frontal cortex membranes); conditions: 0.5 nM [3H]-Ketanserin
T3 construct: Cerebral frontal cortex was homogenized in 10 volumes of ice cold 0.32 M sucrose; from tissue; host or cells: rat cerebral frontal cortex membranes
T3 sequence (P14842 whole entry): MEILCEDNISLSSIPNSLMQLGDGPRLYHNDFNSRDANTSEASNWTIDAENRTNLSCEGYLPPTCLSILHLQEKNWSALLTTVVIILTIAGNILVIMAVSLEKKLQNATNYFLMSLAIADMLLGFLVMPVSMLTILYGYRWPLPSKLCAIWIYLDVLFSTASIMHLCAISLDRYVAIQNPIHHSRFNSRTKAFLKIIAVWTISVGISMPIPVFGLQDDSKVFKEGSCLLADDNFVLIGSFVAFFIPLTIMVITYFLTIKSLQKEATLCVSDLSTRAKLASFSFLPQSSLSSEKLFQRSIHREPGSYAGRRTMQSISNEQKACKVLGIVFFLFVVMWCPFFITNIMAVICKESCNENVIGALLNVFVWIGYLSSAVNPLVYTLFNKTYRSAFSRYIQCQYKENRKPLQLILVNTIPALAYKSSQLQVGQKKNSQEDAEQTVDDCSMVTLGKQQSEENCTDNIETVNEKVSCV
Procedure: 5-HT2A Radioligand Receptor Binding Assay
Rats (male Sprague-Dawley, 200-250 g) were used. Cerebral frontal cortex was homogenized in 10 volumes of ice cold 0.32 M sucrose in 5 mM Tris-HCl ([…]) buffer. After centrifugation of the homogenate (1,000×g for 10 minutes) the supernatant was then recentrifuged at 48,000×g for 15 minutes. The resulting pellet was gently homogenized in an equal volume of 50 mM Tris-HCl buffer (pH 7.4) and incubated at 37° C. for 10 minutes. Membranes were then collected by centrifugation as above described and finally resuspended in 10 volumes of 50 mM Tris-HCl buffer (pH 7.4).
For displacement experiments membranes (980 μl) were diluted in 50 mM Tris-HCl buffer (pH 7.4) to a final concentration of 1:100 (w/v); the tissue suspension was then incubated at 37° C. for 10 minutes in a final volume of 1 ml in the presence of 0.5 nM [^3H]-Ketanserin. Non-specific binding was determined by incubating similar samples with unlabelled methysergide (100 μM). After incubation, samples prepared in a 24 wells cell culture cluster (Costar) were rapidly filtered by Inotech Cell Harvester (IH 201 filters). The filters were washed three times with 2 ml ice-cold Tris-HCl buffer and placed in polyethylene vials, then 4 ml of Filter Count scintillation cocktail (Packard) were added. The radioactivity present was counted by liquid scintillation spectrometry.
The affinity values (IC50) for the compounds were obtained by a nonlinear least squares regression analysis on the basis of a one binding site model.

[5] = [3H]-8-OH-DPAT, CHO membranes, human 5-HT1A, read-out: 5-HT1A Receptor Binding IC50

SMILES	IC50 (5-HT1A [1]; [5]) [nM]	inhibition at 0.1 µM (5-HT1A [1]; CHO membranes, human 5-HT1A) [%]	inhibition at 10 µM (5-HT1A [2]) [%]	inhibition at 0.1 µM (D4 human receptors) [%]	IC50 (5-HT1A [1]) [nM]	5-HT2A PI Turnover % inhibition (5-HT2A [3]) [%]	IC50 (5-HT2A [4]) [nM]
O=c1n(CCN2CCOCC2)c2ccccc2n1CCN1CCN(c2cccc(C(F)(F)F)c2)CC1 [Compound 228]	6	95	82	33	–	–	–
COCCn1c(=O)n(C/C=C\CN2CC=C(c3ccccc3)CC2)c2ccccc21 [Compound 285]	–	96	47	32	5.2	–	–
O=c1n(C/C=C/CN2CCN(c3cccc(Cl)c3)CC2)c2ccccc2n1CCO [Compound 382]	11	88	64	39	–	–	–
CCNC(=O)OCCn1c(=O)n(C/C=C\CN2CC=C(c3ccccc3)CC2)c2ccccc21 [Compound 404]	2.1	95	60	34	–	–	–
CS(=O)(=O)NCCn1c(=O)n(C/C=C\CN2CCN(c3cccc(Cl)c3)CC2)c2ccccc21 [Compound 499]	5	–	74	–	–	–	–
Cc1cccc(N2CCN(C/C=C\Cn3c(=O)n(CCNS(C)(=O)=O)c4ccccc43)CC2)c1 [Compound 514]	7.9	–	67	–	–	41	74
CS(=O)(=O)NCCn1c(=O)n(C/C=C/CN2CCN(c3cccc(Cl)c3)CC2)c2ccccc21 [Compound 521]	0.61	–	67	–	–	48	30
CS(=O)(=O)NCCn1c(=O)n(C/C=C/CN2CCN(c3cccc(C(F)(F)F)c3)CC2)c2ccccc21 [Compound 525]	1.5	–	87	–	–	–	–

From patent publication US6521623B1, “N,N'-disubstituted benzimidazolone derivatives with affinity at the serotonin and dopamine receptors” (Boehringer Ingelheim Pharma KG, priority 2000, dated 2003)
